Data taken from patent publication US7368575B2, “6-alkylamino-2,2′-disubstituted-7,8-disubstituted-2H-1-benzopyran derivatives as 5-lipoxygenase inhibitor” (Korea Research Institute of Chemical Technology, priority 2004, dated 2008).

Assays:
5-LO (5-lipoxygenase) = molecular target: T1, 5-LO (5-lipoxygenase) (Homo sapiens, UniProt P09917); assay: 5-LO enzyme assay using a FOX reagent; assay type: biochemical; conditions: read-out: 5-LO (% inhibition at 1 μM); test sample 1 μM; lysates from 5-LO expressing insect cells; table does not say FOX or 234 nm readout
T1 construct: made in house; host or cells: insect cells (lysate, 7 μg)
T1 sequence (P09917 1-674): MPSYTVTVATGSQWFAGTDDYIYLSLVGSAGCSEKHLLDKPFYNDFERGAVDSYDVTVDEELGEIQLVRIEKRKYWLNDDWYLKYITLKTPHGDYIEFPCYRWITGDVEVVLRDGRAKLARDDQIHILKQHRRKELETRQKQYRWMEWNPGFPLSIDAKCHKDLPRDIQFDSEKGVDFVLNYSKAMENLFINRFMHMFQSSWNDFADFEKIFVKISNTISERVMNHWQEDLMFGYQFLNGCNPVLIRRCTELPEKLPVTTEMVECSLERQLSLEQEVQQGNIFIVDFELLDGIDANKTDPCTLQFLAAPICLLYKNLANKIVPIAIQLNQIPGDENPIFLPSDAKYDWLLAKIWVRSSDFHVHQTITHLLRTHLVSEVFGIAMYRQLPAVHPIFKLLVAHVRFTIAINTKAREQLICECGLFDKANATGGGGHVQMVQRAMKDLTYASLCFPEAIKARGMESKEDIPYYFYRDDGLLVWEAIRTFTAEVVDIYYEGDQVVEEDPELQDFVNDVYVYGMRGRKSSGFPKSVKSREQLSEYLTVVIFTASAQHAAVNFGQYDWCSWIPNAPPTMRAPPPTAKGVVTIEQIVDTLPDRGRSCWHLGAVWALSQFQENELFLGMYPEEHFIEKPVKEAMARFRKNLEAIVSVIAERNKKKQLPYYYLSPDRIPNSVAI
Method: Each test sample was added to lysates (7 μg) obtained from 5-LO expressing insect cells at a final concentration of 1 μM and reacted at room temperature for 3 min. Arachidonic acid as an enzyme substrate (40 μM) was added thereto and further reacted at room temperature for 4 min. Then, a FOX reagent (sulfuric acid 25 mM, xylenol orange 100 μM, FeSO4 100 μM; methanol: water=9:1) 100 μl was added thereto, and the absorbance of the reaction mixture was measured at 575 nm after 5 min.

[1] = system: arachidonic acid-induced ear inflammation (mouse ear edema model); assay: Mouse ear edema model (arachidonic acid-induced; ear thickness and MPO activity); assay type: in vivo; conditions: ICR mouse, oral, 1 hr before arachidonic acid treatment, versus arachidonic acid-only control
Method: The inside of the right ear of ICR mouse (6 week old) was treated with 2 mg of arachidonic acid dissolved in 20 μl of acetone for 1 hr to induce an inflammation.
After 1 hr, the difference between the right ear treated with arachidonic acid and the nontreated left ear was measured with a microgauge. Further, to measure the amount of neutrophil penetrated into a tissue as a primary marker for inflammation induction, the myeloperoxidase (MPO) activity was measured. In particular, the tissue obtained from the arachidonic acid-treated right ear was homogenized in 50 mM phosphate buffer solution (pH 6.0) supplemented with 0.5% hexadecyltrimethylammonium bromide (HTAB), subjected to centrifugation, and then, the MPO activity of the supernatant was measured.
To measure in vivo activity of each test compound, each compound was dissolved in 0.5% methylcellulose (10 mL/kg) and orally administered to the mice 1 hr before the arachidonic acid treatment. After the arachidonic acid was treated for 1 hr, the ear thickness and MPO activity were measured, and in vivo activity of the test compound was estimated by comparing them with those of a control which was treated with arachidonic acid only without the test compoud.

| inhibition at 1 µM (5-LO (5-lipoxygenase)) [%] | SMILES | Animal model (% inhibition) Thickness (T) % ([1]; ear thickness) [%] | Animal model (% inhibition) MPO % ([1]; myeloperoxidase activity of ear tissue) [%] |
| --- | --- | --- | --- |
| 72 | COc1ccc(CCC2(C)C=Cc3cc(NCc4ccccc4)ccc3O2)cc1 (stereo not shown) [1-161] | – | – |
| 51 | COc1ccc(CNc2cc3c(cc2C)OC(C)(CCc2ccccc2)C=C3)cc1 (stereo not shown) [1-324] | – | – |

Second part, the compound before the results:

| SMILES | inhibition at 1 µM (5-LO (5-lipoxygenase)) [%] | Animal model (% inhibition) Thickness (T) % ([1]; ear thickness) [%] | Animal model (% inhibition) MPO % ([1]; myeloperoxidase activity of ear tissue) [%] |
| --- | --- | --- | --- |
| CCCC1(C)C=Cc2cc(NCc3ccccc3)ccc2O1 (stereo not shown) [1-81] | 61 | – | – |
| COc1ccc(CNc2ccc3c(c2)C=CC(C)(CCc2ccccc2)O3)cc1 (stereo not shown) [1-124] | 84 | – | – |
| CC(c1cc2ccccc2s1)N(O)C(N)=O (stereo not shown) [Zileuton, reference compound] | 85 | 67 | 38 |
